# Results from patent publication US7932284B2, “Indole sulfonamide modulators of progesterone receptors” (Eli Lilly and Company, priority 2006, dated 2011).
# Key:
# [1] = molecular target: T1, human GR (glucocorticoid receptor) (Homo sapiens, UniProt P04150); test: GR competition binding assay (HEK293 cell lysate); conditions: 0.3 nM 3H-dexamethasone, 293-GR lysate
# T1 construct: expressed in transfected cells; host or cells: HEK293
# T1 sequence (P04150 1-777): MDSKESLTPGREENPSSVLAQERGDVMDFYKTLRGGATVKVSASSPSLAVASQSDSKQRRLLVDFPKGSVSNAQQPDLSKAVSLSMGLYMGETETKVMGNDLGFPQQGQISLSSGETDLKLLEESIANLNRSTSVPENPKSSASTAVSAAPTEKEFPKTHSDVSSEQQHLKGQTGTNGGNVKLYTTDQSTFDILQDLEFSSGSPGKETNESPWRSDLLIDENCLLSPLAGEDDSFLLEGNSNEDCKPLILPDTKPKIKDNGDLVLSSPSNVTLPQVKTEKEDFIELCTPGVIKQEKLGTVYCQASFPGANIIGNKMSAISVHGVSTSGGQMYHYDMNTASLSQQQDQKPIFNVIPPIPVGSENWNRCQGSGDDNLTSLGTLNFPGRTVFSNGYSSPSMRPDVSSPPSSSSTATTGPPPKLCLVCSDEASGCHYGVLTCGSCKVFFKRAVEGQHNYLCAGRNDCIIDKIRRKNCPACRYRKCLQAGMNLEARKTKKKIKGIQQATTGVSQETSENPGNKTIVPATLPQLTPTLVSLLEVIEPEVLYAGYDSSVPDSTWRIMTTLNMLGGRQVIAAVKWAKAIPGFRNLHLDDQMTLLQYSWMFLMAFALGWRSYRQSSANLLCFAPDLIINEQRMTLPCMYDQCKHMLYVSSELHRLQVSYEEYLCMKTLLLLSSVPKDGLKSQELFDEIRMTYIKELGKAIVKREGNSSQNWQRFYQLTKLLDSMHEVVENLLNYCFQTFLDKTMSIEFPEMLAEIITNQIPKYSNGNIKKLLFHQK
# Procedure: (§1) Cell lysates from HEK293 cells overexpressing human GR (glucocorticoid receptor), AR (androgen receptor), MR (mineralocorticoid receptor) or PR (progesterone receptor) are used for competition binding assays to determine Ki values for compounds of interest. Briefly, competition binding assays are run in a buffer containing 20 mM HEPES, pH 7.6, 0.2 mM EDTA, 75 mM NaCl, 1.5 mM MgCl2, 20% glycerol, 20 mM sodium molybdate, 0.2 mM DTT, 20 ug/ml aprotinin, and 20 ug/ml leupeptin, using either 0.3 nM ^3H-dexamethasone for GR binding, 0.36 nM ^3H-methyltrienolone for AR binding, 0.25 nM ^3H-aldosterone for MR binding, or 0.29 nM ^3H-methyltrienolone for PR binding, and either 20 ug 293-GR lysate, 22 ug 293-AR lysate, 20 ug 293-MR lysate or 40 ug 293-PR lysate per well. Competing compounds are added at various concentrations in half-log increments. Non-specific binding is determined in the presence of 500 nM dexamethasone for GR binding, 500 nM aldosterone for MR binding, or 500 nM methyltrienolone for AR and PR binding. The binding reaction (140 μl) is incubated overnight at 4° C., then 70 μl of cold charcoal-dextran buffer (containing per 50 ml of assay buffer, 0.75 g of charcoal and 0.25 g of dextran) is added to each reaction. Plates are mixed 8 minutes on an orbital shaker at 4° C. Plates are then centrifuged at 3,000 rpm at 4° C. for 10 minutes. An aliquot of 120 μl of the mixture is transferred to another 96-well plate and 175 μl of Wallac Optiphase “Hisafe 3” scintillation fluid is added to each well. Plates are sealed and shaken vigorously on an orbital shaker. After an incubation of 2 hrs, plates are read in a Wallac Microbeta counter. […] The Kd for ^3H-dexamethasone for GR binding, ^3H-methyltrienolone for AR binding, ^3H-aldosterone for MR binding, or ^3H-methyltrienolone for PR binding, is determined by saturation binding. The IC50 values for compounds are converted to Ki using Cheng-Prusoff equation and the Kd determined by saturation binding assay.
# [2] = molecular target: T2, human MR (mineralocorticoid receptor) (Homo sapiens, UniProt P08235); test: MR competition binding assay (HEK293 cell lysate); conditions: 0.25 nM 3H-aldosterone, 293-MR lysate
# T2 construct: expressed in transfected cells; host or cells: HEK293
# T2 sequence (P08235 1-984): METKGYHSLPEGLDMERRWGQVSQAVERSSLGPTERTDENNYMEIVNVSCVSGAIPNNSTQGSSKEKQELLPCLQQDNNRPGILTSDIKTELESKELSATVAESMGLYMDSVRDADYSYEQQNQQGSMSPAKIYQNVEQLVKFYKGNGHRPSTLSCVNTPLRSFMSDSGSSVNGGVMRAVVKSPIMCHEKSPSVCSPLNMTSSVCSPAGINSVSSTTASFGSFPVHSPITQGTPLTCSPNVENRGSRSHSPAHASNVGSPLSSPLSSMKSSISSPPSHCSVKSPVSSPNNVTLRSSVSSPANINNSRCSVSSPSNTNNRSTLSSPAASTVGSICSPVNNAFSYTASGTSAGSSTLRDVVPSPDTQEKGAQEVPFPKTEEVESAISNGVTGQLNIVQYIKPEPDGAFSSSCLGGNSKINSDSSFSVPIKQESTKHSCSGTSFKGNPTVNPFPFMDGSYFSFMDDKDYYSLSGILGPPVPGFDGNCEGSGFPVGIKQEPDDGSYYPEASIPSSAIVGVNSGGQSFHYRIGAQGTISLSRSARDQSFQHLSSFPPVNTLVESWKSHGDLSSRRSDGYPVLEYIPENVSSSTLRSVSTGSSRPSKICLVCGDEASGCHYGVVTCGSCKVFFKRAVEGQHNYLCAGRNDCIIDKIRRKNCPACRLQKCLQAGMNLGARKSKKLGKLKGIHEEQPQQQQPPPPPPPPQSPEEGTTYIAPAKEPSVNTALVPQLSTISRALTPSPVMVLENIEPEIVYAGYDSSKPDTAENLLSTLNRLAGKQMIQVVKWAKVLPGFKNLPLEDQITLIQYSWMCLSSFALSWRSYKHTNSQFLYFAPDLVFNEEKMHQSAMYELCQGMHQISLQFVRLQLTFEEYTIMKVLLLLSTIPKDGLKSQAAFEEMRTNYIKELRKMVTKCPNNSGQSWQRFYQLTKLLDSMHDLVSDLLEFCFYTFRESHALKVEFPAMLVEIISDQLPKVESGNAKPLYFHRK
# Procedure: as §1
Ki [1] [nM],Ki [2] [nM],Structure (SMILES)
> 1000,> 1000,"CC(C)n1cc(-c2ccc3c(c2)COC3=O)c2ccc(NS(C)(=O)=O)cc21 [Example 97, N-[1-Isopropyl-3-(1-oxo-1,3-dihydro-isobenzofuran-5-yl)-1H-indol-6-yl]-methanesulfonamide]"
> 1000,> 1000,"CC(C)n1cc(-c2ccc(C#N)cc2)c2ccc(NS(=O)(=O)C(F)(F)F)cc21 [Example 98, N-[3-(4-Cyano-phenyl)-1-isopropyl-1H-indol-6-yl]-C,C,C-trifluoro-methanesulfonamide]"
> 1000,> 1000,"CC(C)n1cc(-c2ccc(C#N)cc2)c2ccc(NS(=O)(=O)N3CCOCC3)cc21 [Example 100, Morpholine-4-sulfonic acid [3-(4-cyano-phenyl)-1-isopropyl-1H-indol-6-yl]-amide]"
> 1000,> 1000,"CC(C)n1cc(-c2ccc3c(cnn3C)c2)c2ccc(NS(C)(=O)=O)cc21 [Example 107, N-[1-Isopropyl-3-(1-methyl-1H-indazol-5-yl)-1H-indol-6-yl]-methanesulfonamide]"
